Test results reported in paper PMC12860872, “Preclinical evaluation of DOTAGA.Glu.(FAPI)2 and DO3A.Glu.(FAPI)2 as theranostics with human dosimetry extrapolation to lutetium-177 and terbium-161 analogs” (European Journal of Nuclear Medicine and Molecular Imaging, 2025).
“And” between values parts separate entries of the source, which are not always exact repeats. Equal values may be shown once.

Biological target: T1, FAP (Homo sapiens, UniProt Q12884)
T1 construct: the CAF cells overexpressing FAP were seeded at a density of 0.8-1 million cells per well; host or cells: hTERT PF179T prostate cancer-associated fibroblasts
T1 sequence (Q12884 1-760): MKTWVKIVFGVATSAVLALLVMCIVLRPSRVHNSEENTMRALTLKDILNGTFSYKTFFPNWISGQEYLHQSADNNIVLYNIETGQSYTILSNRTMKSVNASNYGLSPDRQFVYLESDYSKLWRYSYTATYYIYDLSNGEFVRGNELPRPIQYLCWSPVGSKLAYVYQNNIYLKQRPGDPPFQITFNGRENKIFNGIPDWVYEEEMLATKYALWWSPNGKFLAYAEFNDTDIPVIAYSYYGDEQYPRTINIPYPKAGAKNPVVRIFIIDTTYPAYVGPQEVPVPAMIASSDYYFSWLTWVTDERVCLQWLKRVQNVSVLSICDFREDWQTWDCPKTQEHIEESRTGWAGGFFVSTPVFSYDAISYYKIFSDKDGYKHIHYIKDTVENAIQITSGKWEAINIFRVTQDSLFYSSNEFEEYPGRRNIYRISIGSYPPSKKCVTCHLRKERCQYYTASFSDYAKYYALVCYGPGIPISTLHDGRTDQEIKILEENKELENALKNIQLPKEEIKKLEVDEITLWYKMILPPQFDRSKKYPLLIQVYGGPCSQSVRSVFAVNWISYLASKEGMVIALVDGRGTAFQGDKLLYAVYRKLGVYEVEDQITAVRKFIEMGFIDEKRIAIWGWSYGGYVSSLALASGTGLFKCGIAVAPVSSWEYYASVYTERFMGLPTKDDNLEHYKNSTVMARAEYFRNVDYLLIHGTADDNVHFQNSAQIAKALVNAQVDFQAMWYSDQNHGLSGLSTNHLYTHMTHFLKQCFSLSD
Assay: Saturation binding on FAP+ CAFs
Settings: for Kd: 0.1 to 10 nM radioligand
Description: For receptor saturation studies, FAP^+ CAFs were incubated with 0.1 to 10 nM of the radioligands. For internalization studies, approximately 2.5 pmol of the radioligands were added to CAFs followed by incubation for 15, 30, 60, 90, 120, 180 and 240 min for the ^68Ga-labeled or 30, 60, 120, 240 and 360 min for the ^177Lu-labeled radioligands at 37 °C, 5% CO2. For the externalization studies, approximately 2.5 pmol of the ^177Lu-labeled radioligands were added to CAFs followed by incubation for 2 h at 37 °C, 5% CO2. The amount of externalized activity was measured at 0, 10, 20, 30, 60, 120, 240, and 1440 min (Supplemental Data).
For receptor saturation analysis, the CAF cells overexpressing FAP were seeded at a density of 0.8-1 million cells per well in 6-well plates, pre-coated with BME (Cultrex Reduced Growth Factor Basement Membrane Extract, RGF BME, R&D System, Minneapolis, USA) to enhance cell attachment. The cells were incubated overnight with medium (EMEM supplemented and containing 10% FBS, 100 U/mL penicillin and 100 μg/mL streptomycin). The next day, the medium was removed and the cells were incubated for 30 minutes at 37 °C, with 0.8 mL of fresh medium. Afterwards, the plates were placed on ice for 30 minutes followed by incubation with increasing concentrations of ^68/natGa- and ^177/natLu-labelled DOTAGA.Glu.(FAPI)2 and DO3A.Glu.( FAPI)2 (0.1-10 nM final concentration in the wells). After the addition of the radioligands, the cells were incubated for 120 minutes at 4 °C. Non-specific binding was determined in the presence of UAMC1110 at a final concentration of 1 μM. After the completion of the incubation, the cells were washed twice with ice-cold PBS, followed by solubilization with 1 M NaOH. The cell-associated radioactivity was measured using a gamma-counter. Specific binding was plotted against the total molar concentration of the added radiotracer. The Kd values and the concentration of the radioligand required to saturate the receptors (Bmax) were determined by nonlinear regression using GraphPad (Prism 8 Graph Pad Software, San Diego, CA). For all the cell studies the values are normalized for 1x10^6 cells per well and all data are from two independent experiments with triplicates in each experiment.

[1] = listed as 177/natLu-DO3A.Glu.(FAPI)2
[2] = listed as 177/natLu-DOTAGA.Glu.(FAPI)2

Compound | Kd [1] | Bmax [1] | Kd [2] | Bmax [2]
N#C[C@@H]1CC(F)(F)CN1C(=O)CNC(=O)c1ccnc2ccc(OCCCCNC(=O)CC[C@H](NC(=O)CN3CCN(CC(=O)[O-])CCN(CC(=O)[O-])CCN(CC(=O)[O-])CC3)C(=O)NCCCCOc3ccc4nccc(C(=O)NCC(=O)N5CC(F)(F)C[C@H]5C#N)c4c3)cc12.[177Lu+3] [[^177Lu]Lu-DO3A.Glu.(FAPI)2] | 0.7 nM and 0.72 nM | 0.4 ± 0.02 nM and 0.37 ± 0.02 nM | – | –
N#C[C@@H]1CC(F)(F)CN1C(=O)CNC(=O)c1ccnc2ccc(OCCCCNC(=O)CC[C@H](NC(=O)CCC(C(=O)O)N3CCN(CC(=O)[O-])CCN(CC(=O)[O-])CCN(CC(=O)[O-])CC3)C(=O)NCCCCOc3ccc4nccc(C(=O)NCC(=O)N5CC(F)(F)C[C@H]5C#N)c4c3)cc12.[177Lu+3] (stereo partly shown) [[^177Lu]Lu-DOTAGA.Glu.(FAPI)2] | – | – | 0.7 nM and 0.68 nM | 0.4 ± 0.02 nM and 0.36 ± 0.02 nM
